Measured values published in patent US11993575B1, “Ethyl [4,4-bis(4-bromophenyl)-2,5-dioxoimidazolidin-1-yl]acetate as an antimicrobial compound” (KING FAISAL UNIVERSITY, priority 2023, dated 2024).

How the values were obtained:
Format in all cases: cell-based
Details in all cases: after 10, 20, 40 and 60 minutes at all dilutions 1:100, 1:200, 1:400, 1:800
Pseudomonas aeruginosa = assay: Antimicrobial testing by agar dilution, Pseudomonas aeruginosa
Procedure: (§1) The antimicrobial properties of the ethyl [4,4-bis(4-bromophenyl)-2,5-dioxoimidazolidin-1-yl]acetate was studied by the method of agar dilution. Test solutions of each compound was prepared in concentration of 1% using dimethylformamide as a solvent then they are diluted in physiological solution to obtain the final experimental dilutions 1:100, 1:200, 1:400, 1:800. The effect of these substances are compared with furacillin in a controllable study. The testing microbes used were gram positive bacteria Staphylococcus aureus, gram negative bacteria Escherichia coli, Pseudomonas aeruginosa and Candida albicans fungi were taken. The experiments used for this survey were meat-pentonlu agar (EPA) for cultivation of bacteria and Saburo environment for fungi. Each experiment used 1 ml of test solution on each plate 500 min. Add 2 drops of emulsified with microbes feel. All experimental samples were taken from the agar after 10, 20, 40, 60 minutes in the environment on the basis of Patrk planted. Bacteria were cultivated at a temperature of 37° C. for 1 day and the mushroom was kept in a thermostat for […] at a temperature of 28° C. Then the results were checked.

Escherichia coli = assay: Antimicrobial testing by agar dilution, Escherichia coli
Procedure: as §1

Staphylococcus aureus = assay: Antimicrobial testing by agar dilution, Staphylococcus aureus
Procedure: as §1

Candida albicans = assay: Antimicrobial testing by agar dilution, Candida albicans
Procedure: as §1

Measured: inhibition activity

CCOC(=O)CN1C(=O)NC(c2ccc(Br)cc2)(c2ccc(Br)cc2)C1=O [ethyl [4,4-bis(4-bromophenyl)-2,5-dioxoimidazolidin-1-yl]acetate]
higher inhibition activity: all assays above
